Tested on: not given
Assay: not given
Settings: literature, J. Med. Chem., 24(4), 465-8 (1981); cited from earlier work

Compound | anticonvulsant activity
CN1C(=O)NC(Cc2cccc(Br)c2)C1=O (stereo not drawn) | weak anticonvulsant activity

Tested on: not given
Assay: not given
Settings: literature, J. Med. Chem., 33(5), 1418-23 (1990); cited from earlier work

Compound | antihyperglycaemic activity
O=C1NC(=O)C(Cc2ccc3ccccc3c2)S1 (stereo not drawn) | antihyperglycaemic activity

Molecular target: T1, human neurokinin-1- receptor (NK1R) (Homo sapiens, UniProt P25103)
T1 construct: expressed in transfected cells
Assay: 125I-substance P binding assay, human NK1R expressed in COS or CHO cells (Substance P antagonism)
Settings: displacement of 125I-substance P, 4° C. or room temperature, 1 hour
Protocol: SUBSTANCE P ANTAGONISM ASSAY
A. Receptor Expression in Monkey Kidney Cell Line (COS)
To express the cloned human neurokinin-1- receptor (NK1R) transiently in COS, the cDNA for the human NK1R was cloned into the expression vector pCDM9 which was derived from pCDM8 (INVITROGEN) by inserting the ampicillin resistance gene (nucleotide 1973 to 2964 from BLUESCRIPT SK+ (trademark, STRATAGENE, La Jolla, Calif., USA)) into the Sac II site. Transfection of 20 μg of the plasmid DNA into 10 million COS cells was achieved by electropotation in 800 μl of transfection buffer (135 mM NaCl, 1.2 mM CaCl2, 1.2 mM MgCl2, 2.4 mM K2 HPO4, 0.6 mM KH2 PO4, 10 mM glucose, 10 mM N-2-hydroxyethyl-piperazine-N'-2-ethane sulphonic acid (HEPES) pH 7.4) at 260 V and 950 μF using the IBI GENEZAPPER (trademark IBI, New Haven, Conn., USA). The cells were incubated in 10% fetal calf serum, 2 mM glutamine, 100U/ml penicillin-streptomycin, and 90% DMEM media (GIBCO, Grand Island, N.Y., USA) in 5% CO2 at 37° C. for three days before the binding assay.
B. Stable Expression in Chinese Hamster Ovarian Cell Line (CHO)
To establish a stable cell line expressing cloned human NK1R, the cDNA was subcloned into the vector pRcCMV (INVITROGEN). Transfection of 20 μg of the plasmid DNA into CHO cells was achieved by electroporation in 800 μl of transfection buffer supplemented with 0.625 mg/ml Herring sperm DNA at 300 V and 950 μF using the IBI GENEZAPPER (IBI). The transfected cells were incubated in CHO media [10% fetal calf serum, 100 U/ml penicillin-streptomycin, 2 mM glutamine, 1/500 hypoxanthinethymidine (ATCC), 90% IMDM media (JRH BIOSCIENCES, Lenexa, Kans., USA), 0.7 mg/ml G418 (GIBCO)] in 5% CO2 at 37° C. until colonies were visible. Each colony was separated and propagated. The cell clone with the highest number of human NK1R was selected.
C. Assay Protocol using COS or CHO
The binding assay of human NK1R expressed in either COS or CHO cells is based on the use of ^125 I-substance P (^125 I-SP, from DU PONT, Boston, Mass.) as a radioactively labeled ligand which competes with unlabeled substance P or any other ligand for binding to the human NK1R. Monolayer cell cultures of COS or CHO were dissociated by the non-enzymatic solution (SPECIALTY MEDIA, Lavellette, N.J.) and resuspended in appropriate volume of the binding buffer (50 mM Tris pH 7.5, 5 mM MnCl2, 150 mM NaCl, 0.04 mg/ml bacitracin, 0.004 mg/ml leupeptin, 0.2 mg/ml BSA, 0.01 mM phosphoramidon) such that 200 μl of the cell suspension would give rise to about 10,000 cpm of specific ^125 I-SP binding (approximately 50,000 to 200,000 cells). In the binding assay, 200 μl of cells were added to a tube containing 20 μl of 1.5 to 2.5 nM of ^125 I-SP and 20 μl of unlabeled substance P or any other test compound. The tubes were incubated at 4° C. or at room temperature for 1 hour with gentle shaking. The bound radioactivity was separated from unbound radioactivity by GF/C filter (BRANDEL, Gaithersburg, MD) which was pre-wetted with 0.1% polyethylenimine. The filter was washed with 3 ml of wash buffer (50 mM Tris pH 7.5, 5 mM MnCl2, 150 mM NaCl) three times and its radioactivity was determined by gamma counter.

T1 sequence (P25103 whole entry): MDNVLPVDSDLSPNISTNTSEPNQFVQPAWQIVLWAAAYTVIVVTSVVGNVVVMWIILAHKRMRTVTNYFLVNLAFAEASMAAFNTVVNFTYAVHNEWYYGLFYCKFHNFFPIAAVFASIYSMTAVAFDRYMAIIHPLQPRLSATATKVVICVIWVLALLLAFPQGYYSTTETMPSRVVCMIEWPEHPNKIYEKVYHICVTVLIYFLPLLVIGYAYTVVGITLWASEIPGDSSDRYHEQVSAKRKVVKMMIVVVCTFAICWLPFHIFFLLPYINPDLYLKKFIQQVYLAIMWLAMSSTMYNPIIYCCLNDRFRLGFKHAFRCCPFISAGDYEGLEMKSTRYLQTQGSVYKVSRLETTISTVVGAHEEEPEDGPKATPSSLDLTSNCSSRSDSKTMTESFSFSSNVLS

Compound | IC50 [nM]
O=C1NC(Cc2c[nH]c3ccccc23)C(=O)N1Cc1cc(C(F)(F)F)cc(C(F)(F)F)c1 (stereo not drawn) [Example 2] | 400
O=C1OC(Cc2c[nH]c3ccccc23)C(=O)N1Cc1cc(C(F)(F)F)cc(C(F)(F)F)c1 (stereo not drawn) [Example 1] | 21
O=C1CC(Cc2c[nH]c3ccccc23)C(=O)N1Cc1cc(C(F)(F)F)cc(C(F)(F)F)c1 (stereo not drawn) [Example 3] | 250
Cn1cc(CC2(C)OC(=O)N(Cc3cc(C(F)(F)F)cc(C(F)(F)F)c3)C2=O)c2ccccc21 (stereo not drawn) [Example 4a, 3-(3,5-Bistrifluoromethylbenzyl)-5-methyl-5-(1-methylindol-3-ylmethylene)oxazolidin-2,4-dione] | 14
CC1(Cc2c[nH]c3ccccc23)OC(=O)N(Cc2cc(C(F)(F)F)cc(C(F)(F)F)c2)C1=O (stereo not drawn) [Example 4b] | 140
Cn1cc(CC2OC(=O)N(Cc3cc(C(F)(F)F)cc(C(F)(F)F)c3)C2=O)c2ccccc21 (stereo not drawn) [Example 4c] | 300

Further lines, results first:

IC50 [nM] | Compound
160 | CN1C(=O)N(Cc2cc(C(F)(F)F)cc(C(F)(F)F)c2)C(=O)C1Cc1c[nH]c2ccccc12 (stereo not drawn) [Example 12]
300 | COc1ccc2[nH]cc(CC3OC(=O)N(Cc4cc(C(F)(F)F)cc(C(F)(F)F)c4)C3=O)c2c1 (stereo not drawn) [Example 5]
50 | C=CCC1(Cc2c[nH]c3ccccc23)OC(=O)N(Cc2cc(C(F)(F)F)cc(C(F)(F)F)c2)C1=O (stereo not drawn) [Example 6]
17 | O=C1O[C@@H](Cc2c[nH]c3ccccc23)C(=O)N1Cc1cc(C(F)(F)F)cc(C(F)(F)F)c1 [Example 8]
100 | CC1(Cc2ccc(Cl)c(Cl)c2)OC(=O)N(Cc2cc(C(F)(F)F)cc(C(F)(F)F)c2)C1=O (stereo not drawn) [Example 10, 5-Methyl-5(3,4-dichlorobenzyl)-3-(3,5-bistrifluoromethylbenzyl)oxazolidin-2,4-dione]
410 | 1-Phenylcarboxamide-3-(3,5-bistrifluoromethylbenzyl)-5-(indol-3-ylmethylene)imidazolidine-2,4-dione [Example 13]
630 | O=C1C(Cc2c[nH]c3ccccc23)N(Cc2ccccc2)C(=O)N1Cc1cc(C(F)(F)F)cc(C(F)(F)F)c1 (stereo not drawn) [Example 11]
85 | CNC(=O)N1C(=O)N(Cc2cc(C(F)(F)F)cc(C(F)(F)F)c2)C(=O)C1Cc1c[nH]c2ccccc12 (stereo not drawn) [Example 14]
> 1000 | CC1(Cc2ccc3ccccc3c2)OC(=O)N(Cc2cc(C(F)(F)F)cc(C(F)(F)F)c2)C1=O (stereo not drawn) [Example 9, 5-Methyl-5-(2-naphthylmethyl)-3-(3,5-bistrifluoromethylbenzyl)oxazolidin-2,4-dione]
200 | O=C1OC(Cc2c[nH]c3ccccc23)C(=O)N1Cc1cc(Cl)cc(Cl)c1 (stereo not drawn) [Example 7]
